Values of other authors as cited in patent US20260193295A1, “CILAGICIN COMPOUNDS AND METHODS OF USE THEREOF” (priority 2022, published 2026).
Values after ≈ are worked out from the molar mass of the structure shown. Like-named read-outs stand apart in the source and are kept apart here.

Tested on: vancomycin-resistant Enterococci clinical isolates
Settings: cited from earlier work
[1] = Enterococci clinical isolate code 781
[2] = Enterococci clinical isolate code 782
[3] = Enterococci clinical isolate code 783
[4] = Enterococci clinical isolate code 784
[5] = Enterococci clinical isolate code 785
[6] = Enterococci clinical isolate code 786
[7] = Enterococci clinical isolate code 787
[8] = Enterococci clinical isolate code 788
[9] = Enterococci clinical isolate code 789
[10] = Enterococci clinical isolate code 790
[11] = Enterococci clinical isolate code 791
[12] = Enterococci clinical isolate code 792
[13] = Enterococci clinical isolate code 793
[14] = Enterococci clinical isolate code 794
[15] = Enterococci clinical isolate code 795
[16] = Enterococci clinical isolate code 796
[17] = Enterococci clinical isolate code 797
[18] = Enterococci clinical isolate code 798
[19] = Enterococci clinical isolate code 799
[20] = Enterococci clinical isolate code 800
[21] = Enterococci clinical isolate code 801
[22] = Enterococci clinical isolate code 802
[23] = Enterococci clinical isolate code 803
[24] = Enterococci clinical isolate code 804
[25] = Enterococci clinical isolate code 805
[26] = Enterococci clinical isolate code 806
[27] = Enterococci clinical isolate code 807
[28] = Enterococci clinical isolate code 808
[29] = Enterococci clinical isolate code 809
[30] = Enterococci clinical isolate code 810

**Q.** Which results are given for `CCCCCCCCCC(=O)N[C@@H](Cc1c[nH]c2ccccc12)C(=O)N[C@H](CC(N)=O)C(=O)N[C@@H](CC(=O)O)C(=O)N[C@@H]1C(=O)NCC(=O)N[C@@H](CCCN)C(=O)N[C@@H](CC(=O)O)C(=O)N[C@H](C)C(=O)N[C@@H](CC(=O)O)C(=O)NCC(=O)N[C@H](CO)C(=O)N[C@@H]([C@H](C)CC(=O)O)C(=O)N[C@@H](CC(=O)c2ccccc2N)C(=O)O[C@@H]1C` [Daptomycin]?
**A.** MIC [1]: 4 µg/mL (≈ 2.47 µM); MIC [2]: 2 µg/mL (≈ 1.23 µM); MIC [3]: 4 µg/mL (≈ 2.47 µM); MIC [4]: 4 µg/mL (≈ 2.47 µM); MIC [5]: 2 µg/mL (≈ 1.23 µM); MIC [6]: 0.5 µg/mL (≈ 0.309 µM); MIC [7]: 8 µg/mL (≈ 4.94 µM); MIC [8]: 1 µg/mL (≈ 0.617 µM); MIC [9]: 8 µg/mL (≈ 4.94 µM); MIC [10]: 4 µg/mL (≈ 2.47 µM); MIC [11]: 1 µg/mL (≈ 0.617 µM); MIC [12]: 4 µg/mL (≈ 2.47 µM); MIC [13]: 4 µg/mL (≈ 2.47 µM); MIC [14]: 4 µg/mL (≈ 2.47 µM); MIC [15]: 1 µg/mL (≈ 0.617 µM); MIC [16]: 2 µg/mL (≈ 1.23 µM); MIC [17]: 1 µg/mL (≈ 0.617 µM); MIC [18]: 1 µg/mL (≈ 0.617 µM); MIC [19]: 2 µg/mL (≈ 1.23 µM); MIC [20]: 2 µg/mL (≈ 1.23 µM); MIC [21]: 2 µg/mL (≈ 1.23 µM); MIC [22]: 4 µg/mL (≈ 2.47 µM); MIC [23]: 4 µg/mL (≈ 2.47 µM); MIC [24]: 1 µg/mL (≈ 0.617 µM); MIC [25]: 2 µg/mL (≈ 1.23 µM); MIC [26]: 4 µg/mL (≈ 2.47 µM); MIC [27]: 4 µg/mL (≈ 2.47 µM); MIC [28]: 4 µg/mL (≈ 2.47 µM); MIC [29]: 4 µg/mL (≈ 2.47 µM); MIC [30]: 4 µg/mL (≈ 2.47 µM)

**Q.** With `CC(=O)NC[C@H]1CN(c2ccc(N3CCOCC3)c(F)c2)C(=O)O1` [Linezolid] as the molecule, how does the MIC [1] read?
**A.** 2 µg/mL (≈ 5.93 µM)

**Q.** What about the MIC [2] of the same molecule?
**A.** 2 µg/mL (≈ 5.93 µM)

**Q.** What about the MIC [3] of the same molecule?
**A.** 2 µg/mL (≈ 5.93 µM)

**Q.** And the MIC [4]?
**A.** 1 µg/mL (≈ 2.96 µM)

**Q.** And the MIC [5]?
**A.** 2 µg/mL (≈ 5.93 µM)

**Q.** What about the MIC [6] of the same molecule?
**A.** 2 µg/mL (≈ 5.93 µM)

**Q.** And the MIC [7]?
**A.** 2 µg/mL (≈ 5.93 µM)

**Q.** And the MIC [8]?
**A.** 4 µg/mL (≈ 11.9 µM)

**Q.** And the MIC [9]?
**A.** 2 µg/mL (≈ 5.93 µM)

**Q.** And the MIC [10]?
**A.** 2 µg/mL (≈ 5.93 µM)

**Q.** And the MIC [11]?
**A.** 2 µg/mL (≈ 5.93 µM)

**Q.** What about the MIC [12] of the same molecule?
**A.** 1 µg/mL (≈ 2.96 µM)

**Q.** And the MIC [13]?
**A.** 2 µg/mL (≈ 5.93 µM)

**Q.** And the MIC [14]?
**A.** 2 µg/mL (≈ 5.93 µM)

**Q.** What about the MIC [15] of the same molecule?
**A.** 1 µg/mL (≈ 2.96 µM)

**Q.** And the MIC [16]?
**A.** 2 µg/mL (≈ 5.93 µM)

**Q.** What about the MIC [17] of the same molecule?
**A.** 2 µg/mL (≈ 5.93 µM)

**Q.** What about the MIC [18] of the same molecule?
**A.** 4 µg/mL (≈ 11.9 µM)

**Q.** What about the MIC [19] of the same molecule?
**A.** 2 µg/mL (≈ 5.93 µM)

**Q.** What about the MIC [20] of the same molecule?
**A.** 2 µg/mL (≈ 5.93 µM)

**Q.** What about the MIC [21] of the same molecule?
**A.** 2 µg/mL (≈ 5.93 µM)

**Q.** And the MIC [22]?
**A.** 2 µg/mL (≈ 5.93 µM)

**Q.** And the MIC [23]?
**A.** 4 µg/mL (≈ 11.9 µM)

**Q.** What about the MIC [24] of the same molecule?
**A.** 2 µg/mL (≈ 5.93 µM)

**Q.** What about the MIC [25] of the same molecule?
**A.** 2 µg/mL (≈ 5.93 µM)

**Q.** What about the MIC [26] of the same molecule?
**A.** 2 µg/mL (≈ 5.93 µM)

**Q.** And the MIC [27]?
**A.** 2 µg/mL (≈ 5.93 µM)

**Q.** What about the MIC [28] of the same molecule?
**A.** 4 µg/mL (≈ 11.9 µM)

**Q.** And the MIC [29]?
**A.** 2 µg/mL (≈ 5.93 µM)

**Q.** What about the MIC [30] of the same molecule?
**A.** 2 µg/mL (≈ 5.93 µM)

**Q.** For `CO[C@H]1/C=C/O[C@@]2(C)Oc3c(C)c(O)c4c(O)c(c(/C=N/N5CCN(C)CC5)c(O)c4c3C2=O)NC(=O)/C(C)=C\C=C\[C@H](C)[C@H](O)[C@@H](C)[C@@H](O)[C@@H](C)[C@H](OC(C)=O)[C@@H]1C` [Rifampin], which MIC [1] is on record?
**A.** 1 µg/mL (≈ 1.22 µM)

**Q.** What about the MIC [2] of the same molecule?
**A.** 1 µg/mL (≈ 1.22 µM)

**Q.** And the MIC [3]?
**A.** >4 µg/mL

**Q.** What about the MIC [4] of the same molecule?
**A.** ≤0.25 µg/mL

**Q.** What about the MIC [5] of the same molecule?
**A.** 2 µg/mL (≈ 2.43 µM)

**Q.** And the MIC [6]?
**A.** 2 µg/mL (≈ 2.43 µM)

**Q.** And the MIC [7]?
**A.** ≤0.25 µg/mL

**Q.** And the MIC [8]?
**A.** >4 µg/mL

**Q.** What about the MIC [9] of the same molecule?
**A.** >4 µg/mL

**Q.** What about the MIC [10] of the same molecule?
**A.** >4 µg/mL

**Q.** What about the MIC [11] of the same molecule?
**A.** 1 µg/mL (≈ 1.22 µM)

**Q.** And the MIC [12]?
**A.** 4 µg/mL (≈ 4.86 µM)

**Q.** What about the MIC [13] of the same molecule?
**A.** 4 µg/mL (≈ 4.86 µM)

**Q.** And the MIC [14]?
**A.** 4 µg/mL (≈ 4.86 µM)

**Q.** And the MIC [15]?
**A.** 2 µg/mL (≈ 2.43 µM)

**Q.** What about the MIC [16] of the same molecule?
**A.** >4 µg/mL

**Q.** What about the MIC [17] of the same molecule?
**A.** 4 µg/mL (≈ 4.86 µM)

**Q.** What about the MIC [18] of the same molecule?
**A.** ≤0.25 µg/mL

**Q.** And the MIC [19]?
**A.** 2 µg/mL (≈ 2.43 µM)

**Q.** And the MIC [20]?
**A.** 2 µg/mL (≈ 2.43 µM)

**Q.** What about the MIC [21] of the same molecule?
**A.** 0.5 µg/mL (≈ 0.608 µM)

**Q.** And the MIC [22]?
**A.** ≤0.25 µg/mL

**Q.** And the MIC [23]?
**A.** >4 µg/mL

**Q.** And the MIC [24]?
**A.** 2 µg/mL (≈ 2.43 µM)

**Q.** And the MIC [25]?
**A.** 2 µg/mL (≈ 2.43 µM)

**Q.** And the MIC [26]?
**A.** >4 µg/mL

**Q.** And the MIC [27]?
**A.** >4 µg/mL

**Q.** What about the MIC [28] of the same molecule?
**A.** >4 µg/mL

**Q.** And the MIC [29]?
**A.** 2 µg/mL (≈ 2.43 µM)

**Q.** What about the MIC [30] of the same molecule?
**A.** 2 µg/mL (≈ 2.43 µM)

**Q.** For `[H]/N=C(/N)N[C@H]1[C@H](O)[C@@H](O)[C@H](O[C@@H]2O[C@@H](C)[C@](O)(C=O)[C@H]2O[C@@H]2O[C@@H](CO)[C@H](O)[C@@H](O)[C@@H]2NC)[C@@H](N/C(N)=N\[H])[C@@H]1O` [Streptomycin], which MIC [1] is on record?
**A.** ≤1000 µg/mL

**Q.** What about the MIC [2] of the same molecule?
**A.** >1000 µg/mL

**Q.** And the MIC [3]?
**A.** >1000 µg/mL

**Q.** What about the MIC [4] of the same molecule?
**A.** ≤1000 µg/mL

**Q.** And the MIC [5]?
**A.** >1000 µg/mL

**Q.** What about the MIC [6] of the same molecule?
**A.** ≤1000 µg/mL

**Q.** And the MIC [7]?
**A.** >1000 µg/mL

**Q.** What about the MIC [8] of the same molecule?
**A.** ≤1000 µg/mL

**Q.** And the MIC [9]?
**A.** >1000 µg/mL

**Q.** What about the MIC [10] of the same molecule?
**A.** >1000 µg/mL

**Q.** And the MIC [11]?
**A.** ≤1000 µg/mL

**Q.** What about the MIC [12] of the same molecule?
**A.** ≤1000 µg/mL

**Q.** And the MIC [13]?
**A.** ≤1000 µg/mL

**Q.** And the MIC [14]?
**A.** >1000 µg/mL

**Q.** And the MIC [15]?
**A.** >1000 µg/mL

**Q.** And the MIC [16]?
**A.** ≤1000 µg/mL

**Q.** And the MIC [17]?
**A.** ≤1000 µg/mL

**Q.** And the MIC [18]?
**A.** ≤1000 µg/mL

**Q.** What about the MIC [19] of the same molecule?
**A.** >1000 µg/mL

**Q.** And the MIC [20]?
**A.** ≤1000 µg/mL

**Q.** What about the MIC [21] of the same molecule?
**A.** ≤1000 µg/mL

**Q.** And the MIC [22]?
**A.** >1000 µg/mL

**Q.** And the MIC [23]?
**A.** >1000 µg/mL

**Q.** And the MIC [24]?
**A.** >1000 µg/mL

**Q.** And the MIC [25]?
**A.** ≤1000 µg/mL

**Q.** What about the MIC [26] of the same molecule?
**A.** ≤1000 µg/mL

**Q.** And the MIC [27]?
**A.** >1000 µg/mL

**Q.** What about the MIC [28] of the same molecule?
**A.** ≤1000 µg/mL

**Q.** And the MIC [29]?
**A.** >1000 µg/mL

**Q.** And the MIC [30]?
**A.** >1000 µg/mL
